PubChem BioAssay (NCI)
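A five-concentration, 48-hour dose response in 96-well plates underlies each endpoint, interpolated linearly between surrounding concentrations. GI50 marks 50% less growth. TGI: total growth inhibition.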

What was measured:
Assay in all cases: growth of human tumour cells (NCI), 48 h
SF-268 CNS = tested on: SF-268 CNS
NCI-H23 lung = tested on: NCI-H23 lung
KM12 colon = tested on: KM12 colon
HCT-15 colon = tested on: HCT-15 colon
RPMI-8226 leukemia = tested on: RPMI-8226 leukemia
K-562 leukemia = tested on: K-562 leukemia
UACC-257 melanoma = tested on: UACC-257 melanoma
M14 melanoma = tested on: M14 melanoma
NCI-H460 lung = tested on: NCI-H460 lung
SF-539 CNS = tested on: SF-539 CNS
COLO 205 colon = tested on: COLO 205 colon
MCF7 breast = tested on: MCF7 breast
HOP-62 NSCLC = tested on: HOP-62 NSCLC
SNB-75 CNS = tested on: SNB-75 CNS
OVCAR-3 ovarian = tested on: OVCAR-3 ovarian
MALME-3M melanoma = tested on: MALME-3M melanoma
OVCAR-5 ovarian = tested on: OVCAR-5 ovarian
MDA-MB-435 = tested on: MDA-MB-435
SK-MEL-5 melanoma = tested on: SK-MEL-5 melanoma
DU-145 prostate = tested on: DU-145 prostate
HT29 colon = tested on: HT29 colon
HCT-116 colon = tested on: HCT-116 colon
786-0 renal = tested on: 786-0 renal
MDA-MB-231 breast = tested on: MDA-MB-231 breast
BT-549 breast = tested on: BT-549 breast
UACC-62 melanoma = tested on: UACC-62 melanoma
SF-295 CNS = tested on: SF-295 CNS
EKVX NSCLC = tested on: EKVX NSCLC
LOX IMVI melanoma = tested on: LOX IMVI melanoma
T-47D breast = tested on: T-47D breast
HL-60(TB) leukemia = tested on: HL-60(TB) leukemia
OVCAR-8 ovarian = tested on: OVCAR-8 ovarian
SK-MEL-28 melanoma = tested on: SK-MEL-28 melanoma
MOLT-4 leukemia = tested on: MOLT-4 leukemia
UO-31 renal = tested on: UO-31 renal
SR leukemia = tested on: SR leukemia
ACHN renal = tested on: ACHN renal
OVCAR-4 ovarian = tested on: OVCAR-4 ovarian
PC-3 prostate = tested on: PC-3 prostate
SN12C renal = tested on: SN12C renal
SK-OV-3 ovarian = tested on: SK-OV-3 ovarian
A549 NSCLC = tested on: A549 NSCLC
HOP-92 NSCLC = tested on: HOP-92 NSCLC
NCI-H226 lung = tested on: NCI-H226 lung
NCI/ADR-RES ovarian = tested on: NCI/ADR-RES ovarian
NCI-H522 lung = tested on: NCI-H522 lung
CAKI-1 renal = tested on: CAKI-1 renal
SW-620 colon = tested on: SW-620 colon
SK-MEL-2 melanoma = tested on: SK-MEL-2 melanoma
TK-10 renal = tested on: TK-10 renal
U251 CNS = tested on: U251 CNS
CCRF-CEM leukemia = tested on: CCRF-CEM leukemia
HS 578T breast = tested on: HS 578T breast
SNB-19 CNS = tested on: SNB-19 CNS
IGROV1 ovarian = tested on: IGROV1 ovarian
HCC-2998 colon = tested on: HCC-2998 colon
RXF 393 renal = tested on: RXF 393 renal
A498 renal = tested on: A498 renal

Question: O=C1OC(CN2CCOCC2)CN1/N=C/c1ccc([N+](=O)[O-])o1 (stereo not given) was tested. Which TGI (SF-268 CNS) did it give?
Answer: > 100 µM

Question: What about the TGI (NCI-H23 lung) of the same molecule?
Answer: 53.9 µM

Question: What about the TGI (KM12 colon) of the same molecule?
Answer: 45.8 µM

Question: What about the TGI (HCT-15 colon) of the same molecule?
Answer: 39.2 µM

Question: And the TGI (RPMI-8226 leukemia)?
Answer: > 100 µM

Question: What about the TGI (K-562 leukemia) of the same molecule?
Answer: > 100 µM

Question: And the TGI (UACC-257 melanoma)?
Answer: > 100 µM

Question: What about the TGI (M14 melanoma) of the same molecule?
Answer: 45.6 µM

Question: And the TGI (NCI-H460 lung)?
Answer: > 100 µM

Question: And the TGI (SF-539 CNS)?
Answer: > 100 µM

Question: What about the TGI (COLO 205 colon) of the same molecule?
Answer: > 100 µM

Question: And the TGI (MCF7 breast)?
Answer: > 100 µM

Question: What about the TGI (HOP-62 NSCLC) of the same molecule?
Answer: > 100 µM

Question: And the TGI (SNB-75 CNS)?
Answer: > 100 µM

Question: And the TGI (OVCAR-3 ovarian)?
Answer: 67.4 µM

Question: And the TGI (MALME-3M melanoma)?
Answer: 46.6 µM

Question: And the TGI (OVCAR-5 ovarian)?
Answer: > 100 µM

Question: And the TGI (MDA-MB-435)?
Answer: 33.3 µM

Question: And the TGI (SK-MEL-5 melanoma)?
Answer: 63 µM

Question: And the TGI (DU-145 prostate)?
Answer: > 100 µM

Question: And the TGI (HT29 colon)?
Answer: > 100 µM

Question: And the TGI (HCT-116 colon)?
Answer: 39.3 µM

Question: What about the TGI (786-0 renal) of the same molecule?
Answer: > 100 µM

Question: And the TGI (MDA-MB-231 breast)?
Answer: > 100 µM

Question: What about the TGI (BT-549 breast) of the same molecule?
Answer: > 100 µM

Question: What about the TGI (UACC-62 melanoma) of the same molecule?
Answer: 99.2 µM

Question: What about the TGI (SF-295 CNS) of the same molecule?
Answer: > 100 µM

Question: What about the TGI (EKVX NSCLC) of the same molecule?
Answer: > 100 µM

Question: What about the TGI (LOX IMVI melanoma) of the same molecule?
Answer: 59.6 µM

Question: What about the TGI (T-47D breast) of the same molecule?
Answer: > 100 µM

Question: And the TGI (HL-60(TB) leukemia)?
Answer: > 100 µM

Question: And the TGI (OVCAR-8 ovarian)?
Answer: > 100 µM

Question: What about the TGI (SK-MEL-28 melanoma) of the same molecule?
Answer: > 100 µM

Question: What about the TGI (MOLT-4 leukemia) of the same molecule?
Answer: > 100 µM

Question: And the TGI (UO-31 renal)?
Answer: > 100 µM

Question: What about the TGI (SR leukemia) of the same molecule?
Answer: > 100 µM

Question: And the TGI (ACHN renal)?
Answer: > 100 µM

Question: And the TGI (OVCAR-4 ovarian)?
Answer: > 100 µM

Question: What about the TGI (PC-3 prostate) of the same molecule?
Answer: > 100 µM

Question: What about the TGI (SN12C renal) of the same molecule?
Answer: 92 µM

Question: And the TGI (SK-OV-3 ovarian)?
Answer: > 100 µM

Question: What about the TGI (A549 NSCLC) of the same molecule?
Answer: > 100 µM

Question: What about the TGI (HOP-92 NSCLC) of the same molecule?
Answer: > 100 µM

Question: What about the TGI (NCI-H226 lung) of the same molecule?
Answer: > 100 µM

Question: And the TGI (NCI/ADR-RES ovarian)?
Answer: > 100 µM

Question: What about the TGI (NCI-H522 lung) of the same molecule?
Answer: 72.3 µM

Question: What about the TGI (CAKI-1 renal) of the same molecule?
Answer: > 100 µM

Question: And the TGI (SW-620 colon)?
Answer: > 100 µM

Question: And the TGI (SK-MEL-2 melanoma)?
Answer: > 100 µM

Question: What about the TGI (TK-10 renal) of the same molecule?
Answer: > 100 µM

Question: What about the TGI (U251 CNS) of the same molecule?
Answer: 98.6 µM

Question: What about the TGI (CCRF-CEM leukemia) of the same molecule?
Answer: > 100 µM

Question: What about the TGI (HS 578T breast) of the same molecule?
Answer: > 100 µM

Question: And the TGI (SNB-19 CNS)?
Answer: > 100 µM

Question: And the TGI (IGROV1 ovarian)?
Answer: 84.8 µM

Question: Which results are given for c1ccc(CNc2nc(Nc3ccccc3)nc3ccccc23)cc1?
Answer: GI50 (SF-268 CNS): 3.01 µM; TGI (SF-268 CNS): 9.3 µM; GI50 (NCI-H23 lung): 2.17 µM; TGI (NCI-H23 lung): 9.25 µM; GI50 (KM12 colon): 2.92 µM; TGI (KM12 colon): 10.1 µM; GI50 (HCC-2998 colon): 1.99 µM; TGI (HCC-2998 colon): 4.43 µM; GI50 (RPMI-8226 leukemia): 1.41 µM; TGI (RPMI-8226 leukemia): 4.42 µM; GI50 (UACC-257 melanoma): 1.78 µM; TGI (UACC-257 melanoma): 3.78 µM; GI50 (M14 melanoma): 1.83 µM; TGI (M14 melanoma): 3.6 µM; GI50 (SF-539 CNS): 1.69 µM; TGI (SF-539 CNS): 3.14 µM; GI50 (COLO 205 colon): 1.89 µM; TGI (COLO 205 colon): 3.77 µM; GI50 (HOP-62 NSCLC): 2.3 µM; TGI (HOP-62 NSCLC): 5.17 µM; GI50 (SNB-75 CNS): 1.93 µM; TGI (SNB-75 CNS): 6.5 µM; GI50 (OVCAR-3 ovarian): 1.77 µM; TGI (OVCAR-3 ovarian): 3.53 µM; GI50 (MALME-3M melanoma): 1.7 µM; TGI (MALME-3M melanoma): 3.38 µM; GI50 (OVCAR-5 ovarian): 1.86 µM; TGI (OVCAR-5 ovarian): 4.19 µM; GI50 (MDA-MB-435): 1.72 µM; TGI (MDA-MB-435): 3.67 µM; GI50 (SK-MEL-5 melanoma): 1.41 µM; TGI (SK-MEL-5 melanoma): 2.76 µM; GI50 (DU-145 prostate): 3.06 µM; TGI (DU-145 prostate): 10.7 µM; GI50 (HT29 colon): 2.06 µM; TGI (HT29 colon): 4.88 µM; GI50 (HCT-116 colon): 1.71 µM; TGI (HCT-116 colon): 3.3 µM; GI50 (786-0 renal): 1.66 µM; TGI (786-0 renal): 3.12 µM; GI50 (MDA-MB-231 breast): 1.58 µM; TGI (MDA-MB-231 breast): 3.12 µM; GI50 (BT-549 breast): 1.9 µM; TGI (BT-549 breast): 3.97 µM; GI50 (UACC-62 melanoma): 1.48 µM; TGI (UACC-62 melanoma): 2.95 µM; GI50 (SF-295 CNS): 1.73 µM; TGI (SF-295 CNS): 3.77 µM; GI50 (LOX IMVI melanoma): 1.88 µM; TGI (LOX IMVI melanoma): 3.4 µM; GI50 (T-47D breast): 1.72 µM; TGI (T-47D breast): 4.46 µM; GI50 (OVCAR-8 ovarian): 1.99 µM; TGI (OVCAR-8 ovarian): 5.09 µM; GI50 (SK-MEL-28 melanoma): 1.7 µM; TGI (SK-MEL-28 melanoma): 3.24 µM; GI50 (MOLT-4 leukemia): 2.21 µM; TGI (MOLT-4 leukemia): 5.37 µM; GI50 (UO-31 renal): 2.1 µM; TGI (UO-31 renal): 8.53 µM; GI50 (SR leukemia): 2.28 µM; TGI (SR leukemia): 6.07 µM; GI50 (ACHN renal): 1.87 µM; TGI (ACHN renal): 4.16 µM; GI50 (OVCAR-4 ovarian): 2.05 µM; TGI (OVCAR-4 ovarian): 8.04 µM; GI50 (PC-3 prostate): 1.66 µM; TGI (PC-3 prostate): 4.9 µM; GI50 (SN12C renal): 1.73 µM; TGI (SN12C renal): 3.7 µM; GI50 (SK-OV-3 ovarian): 3.26 µM; TGI (SK-OV-3 ovarian): 9.51 µM; GI50 (A549 NSCLC): 1.84 µM; TGI (A549 NSCLC): 5.35 µM; GI50 (HOP-92 NSCLC): 1.45 µM; TGI (HOP-92 NSCLC): 3.05 µM; GI50 (NCI-H226 lung): 2.26 µM; TGI (NCI-H226 lung): 11.6 µM; GI50 (RXF 393 renal): 1.65 µM; TGI (RXF 393 renal): 3.2 µM; GI50 (NCI/ADR-RES ovarian): 1.99 µM; TGI (NCI/ADR-RES ovarian): 5 µM; GI50 (NCI-H522 lung): 1.45 µM; TGI (NCI-H522 lung): 3.23 µM; GI50 (CAKI-1 renal): 2.04 µM; TGI (CAKI-1 renal): 5.18 µM; GI50 (TK-10 renal): 2.02 µM; TGI (TK-10 renal): 4.53 µM; GI50 (U251 CNS): 1.52 µM; TGI (U251 CNS): 2.91 µM; GI50 (CCRF-CEM leukemia): 2.13 µM; TGI (CCRF-CEM leukemia): 6 µM; GI50 (HS 578T breast): 2.17 µM; TGI (HS 578T breast): 6.01 µM; GI50 (SNB-19 CNS): 3.16 µM; TGI (SNB-19 CNS): 14.6 µM; GI50 (IGROV1 ovarian): 2.59 µM; TGI (IGROV1 ovarian): 7.44 µM; GI50 (A498 renal): 1.29 µM; TGI (A498 renal): 5.7 µM
